Results as given in PubChem BioAssay AID179 (DTP/NCI, 2004).
The source made the active and inactive calls.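 The calls were made as follows: active = compounds giving half or more protection of infected cells from virus-caused growth loss, again on retest; inactive = the rest.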

System: CEM cells HIV-1 protection, formazan growth assay
Assay: NCI AIDS Antiviral Assay
Details: for IC50: measured here: growth of uninfected CEM cells
Outline: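 Human CEM cells, uninfected and HIV-1-infected, received five drug concentrations, and growth was read by soluble formazan assay. Compounds giving at least 50% protection were retested; reproducible 100% protection defined confirmed active.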

In the case of COC1OC2COc3ccccc3OC2C2C1N2C(N)=O (stereo not given), the outcome is reported as “inactive”.

For O=C(Cc1ccccc1)NN1C(=O)C(Cl)C1c1cc(Br)ccc1O (stereo not given), the EC50 was > 12.6 µM and the IC50 was 6.92 µM.

COc1ccc(-n2cnn3c(=O)c4cn[nH]c4nc23)cc1 was tested, and the EC50 was > 200 µM and the IC50 was > 200 µM.

For O=C1/C(=C\c2ccccc2O)Cc2ccccc21, the EC50 was > 148 µM and the IC50 was 28.2 µM.

COc1ccc(-c2c3c(n(C4OC(CO)C(O)C(O)C4O)c(=S)c2C#N)CCCC3)cc1 (stereo not given) was tested, and the EC50 was > 200 µM and the IC50 was 55 µM.

With c1ccc2nc3c(cc2c1)[nH]c1ccccc13 the EC50 was > 339 µM and the IC50 was 204 µM.

With COc1ccc(C2=Nc3ccccc3NC(=O)C2)cc1 the EC50 was > 37.2 µM and the IC50 was > 37.2 µM.

With N#C/C(C(=N)c1ccccc1)=C1\SS/C(=C(\C#N)C(=N)c2ccccc2)S1 the EC50 was > 200 µM and the IC50 was 6.03 µM.

In the case of COc1ccccc1NC(=O)C(C#N)=C(SC)SC, the EC50 is reported as > 200 µM and the IC50 is reported as 8.91 µM.

For O=C(/C=C/c1ccccc1)CSc1ncn[nH]1, the EC50 was > 200 µM and the IC50 was 12 µM.

In the case of O=C1C2C3C=CC(C3)C2S(=O)(=O)C2C3C=CC(C3)C12 (stereo not given), the EC50 is reported as > 324 µM and the IC50 is reported as > 324 µM.

For O=c1c2ccccc2nc(-c2ccc(Br)cc2)n1NC1OC(CO)C(O)C(O)C1O (stereo not given), the outcome was “inactive”.

NCCS/C=C\C(=O)OCc1ccc(Br)cc1 was tested, and the EC50 was > 708 µM and the IC50 was 64.6 µM.

C[Si](C)(C)/N=C1\N2C(=NC1(C(F)(F)F)C(F)(F)F)Sc1ccccc12 was tested, and the outcome was “inactive”.

In the case of COc1ccc2cc1Oc1ccc(cc1)C[C@@H]1c3cc(c(OC)cc3CCN1C)Oc1c(O)c(OC)cc3c1CCN(C)C3C2 (stereo not given in full), the outcome is reported as “inactive”.

For Cc1ccccc1NC(=O)C(=O)CC(=O)c1sc(-n2nc(-c3ccccc3)cc2-c2ccccc2)nc1C, the EC50 was > 479 µM and the IC50 was > 479 µM.

In the case of O=C1c2ccccc2C(=O)c2nc3c(O)cccc3cc21, the EC50 is reported as > 19.1 µM and the IC50 is reported as > 19.1 µM.

O=S1(=O)CC2(N3CCOCC3)CCCCC21 (stereo not given) was tested, and the EC50 was > 1020 µM and the IC50 was > 1020 µM.

Cc1ccc(C2=NO[C@@H]3C(=O)N(c4ccc(Cc5ccc(N6C(=O)[C@H]7C(c8ccc(C)cc8)=NO[C@H]7C6=O)cc5)cc4)C(=O)[C@H]23)cc1 was tested, and the EC50 was > 11.5 µM and the IC50 was > 11.5 µM.

In the case of CO/C=C/c1ccc2c(c1)OCO2, the outcome is reported as “inactive”.

With CC(C)CC1NC(=O)C(CC(C)C)N(CO)C1=O (stereo not given) the EC50 was > 200 µM and the IC50 was > 200 µM.

With N#Cc1c(=O)[nH]c(=O)n2c1[nH]c1ccccc12 the EC50 was > 200 µM and the IC50 was > 200 µM.

In the case of COc1ccc(C2Oc3c(cc(O)c(OC)c3C)[C@@H]2C)cc1OC (stereo not given in full), the EC50 is reported as > 79.4 µM and the IC50 is reported as 47.9 µM.

With COc1cc(CCCOC(=O)/C=C/c2ccc(O)c(O)c2)cc(O)c1O the EC50 was > 200 µM and the IC50 was > 200 µM.

In the case of COC12OC3(C4OC41)C(C(=O)O[C@H]3CO)C2S(=O)(=O)c1ccccc1 (stereo not given in full), the EC50 is reported as > 200 µM and the IC50 is reported as > 200 µM.

COC(=O)c1cncc2c1CC1C3(C(=O)OC)C=NC(C4C(CO)=CCC43)C21C (stereo not given) was tested, and the outcome was “inactive”.

With CC1(C)N(OC2CCCCO2)C(c2ccccc2)C(c2ccccc2)=[N+]1[O-] (stereo not given) the EC50 was > 200 µM and the IC50 was 35.5 µM.

For O=C(O)c1onc2cc([N+](=O)[O-])ccc12, the EC50 was > 1200 µM and the IC50 was 219 µM.

In the case of CN(C)Cc1c[nH]c2c1S/C(=C/c1ccccc1)C2=O, the EC50 is reported as > 178 µM and the IC50 is reported as 16.6 µM.

For CCOC(=O)Nn1c(C)cc(C(=O)OC)c1C, the outcome was “inactive”.

With NC(=O)Nc1ccc(C(=O)NCCCNC(=O)c2ccc(NC(N)=O)cc2)cc1 the EC50 was > 200 µM and the IC50 was > 200 µM.

COC(=O)CCC(=O)Nc1cccc(C(F)(F)F)c1 was tested, and the EC50 was > 129 µM and the IC50 was > 129 µM.

With CCc1cc(C(N)=S)ccn1 the EC50 was > 200 µM and the IC50 was > 200 µM.

In the case of COc1ccc(N=Nc2cc(OC)c(N=Nc3c(O)c4ccccc4[nH]c3=O)cc2OC)cc1, the EC50 is reported as > 100 µM and the IC50 is reported as 15.5 µM.

C=Cc1cc[n+](CCCCCC[n+]2ccc(C=C)cc2)cc1 was tested, and the EC50 was > 200 µM and the IC50 was > 200 µM.

With Cc1cc2c(C)c(-c3ccccc3)c(=O)oc2c(C#N)c1C the EC50 was > 200 µM and the IC50 was 170 µM.
